From patent US10934278B2, “Compounds” (Autifony Therapeutics Limited, priority 2016, dated 2021)

How the values were obtained:
human Kv3.1 channels = biological target: T1, human Kv3.1 channels (Homo sapiens, UniProt P48547); assay: hKv3.1 IonWorks Quattro whole-cell current potentiation assay; type: cell-based; conditions: for % current increase @ conc 1.56 μM: Kv3.1, 1.56 μM; for % current increase @ conc 3.12 μM: Kv3.1, 3.12 μM; for % current increase @ conc 12.5 μM: Kv3.1, 12.5 μM; for EC50: hKv3.1, -15 mV voltage step, read-out: pEC50 (Kv3.1) (converted)
T1 construct: expressed in transfected cells; host or cells: CHO/Gam/E1A-clone22 (CGE22) cells, CHO-K1-derived, transiently transduced with BacMam (pFBM/human Kv3.1, MOI 50)
T1 sequence (P48547 1-511): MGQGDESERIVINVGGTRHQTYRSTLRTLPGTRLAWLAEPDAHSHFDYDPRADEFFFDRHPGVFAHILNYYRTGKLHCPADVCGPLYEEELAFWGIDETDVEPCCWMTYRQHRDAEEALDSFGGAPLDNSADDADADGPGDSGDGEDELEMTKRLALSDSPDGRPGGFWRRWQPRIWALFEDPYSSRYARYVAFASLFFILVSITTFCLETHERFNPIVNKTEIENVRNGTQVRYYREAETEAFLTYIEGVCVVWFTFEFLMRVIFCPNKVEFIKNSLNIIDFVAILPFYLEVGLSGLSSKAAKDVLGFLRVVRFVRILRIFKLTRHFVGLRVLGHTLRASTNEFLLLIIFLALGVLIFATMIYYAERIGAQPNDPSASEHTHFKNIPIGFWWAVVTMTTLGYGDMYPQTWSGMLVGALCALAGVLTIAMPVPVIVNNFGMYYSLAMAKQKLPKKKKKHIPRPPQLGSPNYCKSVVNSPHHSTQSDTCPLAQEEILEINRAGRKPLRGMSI
Text: To assess compound effects on human Kv3.1 channels (hKv3.1), CHO/Gam/E1A-clone22 alias CGE22 cells were transduced using a hKv3.1 BacMam reagent. This cell line was designed to be an improved CHO-K1-based host for enhanced recombinant protein expression as compared to wild type CHO-K1. The cell line was generated following the transduction of CHO-K1 cells with a BacMam virus expressing the Adenovirus-Gam1 protein and selection with Geneticin-G418, to generate a stable cell line, CHO/Gam-A3. CHO/Gam-A3 cells were transfected with pCDNA3-E1A-Hygro, followed by hygromycin-B selection and FACS sorting to obtain single-cell clones. BacMam-Luciferase and BacMam-GFP viruses were then used in transient transduction studies to select the clone based on highest BacMam transduction and recombinant protein expression. CGE22 cells were cultured in the same medium used for the hKv3.2 CHO-K1 stable cell line with the addition of 300 ug/ml hygromycin-B and 300 ug/ml G418. All other conditions were identical to those for hKv3.2 CHO-K1 cells. The day before an experiment 10 million CGE22 cells were plated in a T175 culture flask and the hKv3.1 BacMam reagent (pFBM/human Kv3.1) was added (MOI of 50). Transduced cells were used 24 h later.
Cell Preparation for Ion Works Quattro™ Experiments The day of the experiment, cells were removed from the incubator and the culture medium removed. Cells were washed with 5 ml of Dulbecco's PBS (DPBS) calcium and magnesium free and detached by the addition of 3 ml Versene (Invitrogen, Italy) followed by a brief incubation at 37° C. for 5 minutes. The flask was tapped to dislodge cells and 10 ml of DPBS containing calcium and magnesium was added to prepare a cell suspension. The cell suspension was then placed into a 15 ml centrifuge tube and centrifuged for 2 min at 1200 rpm. After centrifugation, the supernatant was removed and the cell pellet re-suspended in 4 ml of DPBS containing calcium and magnesium using a 5 ml pipette to break up the pellet. Cell suspension volume was then corrected to give a cell concentration for the assay of approximately 3 million cells per ml.
Experiments were conducted at r.t. using lonWorks Quattro™ planar array electrophysiology technology (Molecular Devices Corp.) with PatchPlate™ PPC. Stimulation protocols and data acquisition were carried out using a microcomputer (Dell Pentium 4). Planar electrode hole resistances (Rp) were determined by applying a 10 mV voltage step across each well. These measurements were performed before cell addition. After cell addition and seal formation, a seal test was performed by applying a voltage step from −80 mV to −70 mV for 160 ms. Following this, amphotericin-B solution was added to the intracellular face of the electrode to achieve intracellular access. Cells were held at −70 mV. Leak subtraction was conducted in all experiments by applying 50 ms hyperpolarizing (10 mV) prepulses to evoke leak currents followed by a 20 ms period at the holding potential before test pulses. For hKv3.2 and hKv3.1 assays, from the holding potential of −70 mV, a first test pulse to −15 mV was applied for 100 ms and following a further 100 ms at −70 mV, a second pulse to 40 mV was applied for 50 ms. Cells were then maintained for a further 100 ms at −100 mV and then a voltage ramp from −100 mV to 40 mV was applied over 200 ms. For hKv3.3 assays, from the holding potential of −70 mV, a first test pulse to 0 mV was applied for 500 ms and following a further 100 ms at −70 mV, a second pulse to 40 mV was applied for 200 ms. These longer test pulses were used to study inactivation of hKv3.3 channels. Test pulses protocol may be performed in the absence (pre-read) and presence (post-read) of the test compound. Pre- and post-reads may be separated by the compound addition followed by a 3 minute incubation.
The intracellular solution contained the following (in mM): K-gluconate 100, KCl 54, MgCl2 3.2, HEPES 5, adjusted to pH 7.3 with KOH. […]

[1] = tested on: rat model of neuropathic pain; assay: Neuropathic pain model, partial ligation of the sciatic nerve, paw withdrawal thresholds; type: in vivo; conditions: for Peak reversal of mechanical sensitivity: 3 h post-dose
Procedure: (§1) Subjects comprised male, Wistar Hanover rats, 6 animals per group (225±2 g).
(§2) Vehicle (12% Captisol®; 0.5% w/v HPMC and 0.1% w/v Tween-80; 5 ml/kg via the intraperitoneal route) was prepared using autoclaved deionized water not more than one week prior to use.
(§3) The control for the neuropathic pain model was lamotrigine, administered at 30 mg/kg via oral delivery. The control for the inflammatory pain model was diclofenac, administered at 30 mg/kg via oral delivery. Statistical analysis was performed using one-way ANOVA, and comparisons were performed with time-matched vehicle group using Tukey's HSD test wherein *p<0.05, **p<0.01, ***p<0.001.
Neuropathic pain was induced by partial ligation of the sciatic nerve. Briefly, the rats were anaesthetised (isoflurane/O2 inhalation), the left sciatic nerve exposed at mid-thigh level through a small incision and ⅓ to ½ of the nerve thickness tightly ligated within a 7.0 silk suture. The wound was closed with surgical glue. Animals were allowed to recover and tested 12-15 days following surgery.
Withdrawal thresholds were measured on both the ipsilateral (ligated) and contralateral (non-ligated) paws, prior to (predose) and then up to 24 h following drug or vehicle administration.
Pre-dose behavioural measurements were obtained by measuring paw withdrawals 14 days following nerve ligation; before the initiation of drug treatment. Following treatment, further readings were taken at 1, 3, 6 and 24 hour after administration.
(§4) Mechanical hyperalgesia was examined in a model of neuropathic pain by measuring paw withdrawal thresholds (PWT) to increasing mechanical force applied to the dorsal surface of the rat paw using an Analgesymeter (Ugo-Basile, Milan) equipped with a wedge-shaped probe (area 1.75 mm^2). Cut-off was set at 250 g and the end-point was taken as withdrawal of the hind paw. Both ipsilateral and contralateral paw withdrawal readings were taken.
Cold sensitivity can be assessed using a commercially available cold-plate (Ugo Basile, Milan). The cold plate is allowed to stabilize for 5 minutes at the set temperature prior to testing. Paw withdrawal latencies (PWL) are determined with the cold-plate set at 10° C. The animals are lightly restrained and each hind paw in turn placed onto the surface of the cold-plate. The end point is taken as the withdrawal of the paw and recorded as the withdrawal latency for the ipsilateral and the contralateral paw. A maximum cut-off of 30 seconds is used for each paw.
(§5) Data were expressed as withdrawal threshold (g) and percentage reversals calculated according to the following formula: […]

[2] = tested on: rat model of persistent inflammatory pain; assay: Persistent inflammatory pain model (FCA), paw withdrawal thresholds; type: in vivo
Procedure: as §1, §2, §3
Mechanical hyperalgesia was examined in a model of persistent inflammatory pain.
The hyperalgesia was induced by an intraplantar injection (25 μl) of Freund's Complete Adjuvant (FCA) into the left hind paw.
To assess the effect of the test compound, paw withdrawal thresholds were measured on both the ipsilateral (FCA-injected) and contralateral (non-injected) paws, prior to (naïve) and 24 h following FCA injection (predose), and then at 1, 3, 6 and 24 h after drug or vehicle administration.
as §4, §5

Question: Which results are given for `Cc1ccc(O[C@H]2C[C@H](N3C(=O)NC(C)(C)C3=O)C2)c2c1OCC21CC1`?
Answer: % current increase @ conc 1.56 μM (human Kv3.1 channels): 25%; % current increase @ conc 3.12 μM (human Kv3.1 channels): 60%; % current increase @ conc 12.5 μM (human Kv3.1 channels): 105%; EC50 (human Kv3.1 channels): 3.55 µM

Question: Which “% current increase @ conc 1.56 μM” value (human Kv3.1 channels) does the source give for `Cc1ccc(O[C@@H]2CC[C@@H](N3C(=O)NC(C)(C)C3=O)C2)c2c1OCC21CC1` (racemic) here?
Answer: Its value is 7%.

Question: What about the “% current increase @ conc 3.12 μM” value (human Kv3.1 channels) of the same compound?
Answer: The value was 10%.

Question: And the “% current increase @ conc 12.5 μM” value (human Kv3.1 channels)?
Answer: Its value is 12%.

Question: And the EC50 (human Kv3.1 channels)?
Answer: The EC50 was greater than 50.1 µM.

Question: How did the “Peak reversal of mechanical sensitivity” value ([1]; 10 mg/kg i.p.) turn out when `Cc1ccc(Oc2ncc(N3C(=O)NC(C)(C)C3=O)cn2)c2c1OCC21CC1` [Compound X, 5,5-dimethyl-3-[2-(7-methylspiro[2H-benzofuran-3,1′-cyclopropane]-4-yl)oxypyrimidin-5-yl]imidazolidine-2,4-dione] was run?
Answer: The value was 31%.

Question: What about the “Peak reversal of mechanical sensitivity” value ([1]; 30 mg/kg i.p.) of the same compound?
Answer: Its value is 73%.

Question: What about the “Peak reversal of mechanical sensitivity” value ([1]; 60 mg/kg i.p.) of the same compound?
Answer: Its value is 81%.

Question: And the “effect on mechanical sensitivity, ipsilateral paw” value ([1]; 10, 30, 60 mg/kg i.p.)?
Answer: Its value is “dose-related reversal of mechanical sensitivity”.

Question: And the “changes in normal behaviour” value ([1]; administered acutely, neuropathic and inflammatory pain models)?
Answer: Its value is “without causing significant changes in normal behaviour”.

Question: What about the “contralateral paw withdrawal thresholds to mechanical pressure” value ([1]; rat, in vivo) of the same compound?
Answer: The value was “significant increases”.

Question: And the duration of efficacy ([1]; rat, in vivo)?
Answer: Its duration of efficacy is “up to 6 h”.

Question: What about the “time of maximal efficacy after dosing” value ([1]; rat, in vivo) of the same compound?
Answer: Its value is 1 to 3 h.

Question: What about the “effect on cold sensitivity, ipsilateral paw” value ([1]; results not shown) of the same compound?
Answer: The value was “marked, dose-related reversal of cold sensitivity”.

Question: And the general behaviour observation ([1]; treated rats)?
Answer: The general behaviour observation was “induced flaccidity in some of the treated rats”.

Question: And the “Peak reversal of mechanical sensitivity” value ([2]; 10 mg/kg i.p., 3 h post-dose)?
Answer: Its value is 64%.

Question: And the “Peak reversal of mechanical sensitivity” value ([2]; 30 mg/kg i.p., 1 h post-dose)?
Answer: Its value is 74%.

Question: What about the “Peak reversal of mechanical sensitivity” value ([2]; 60 mg/kg i.p., 1 h post-dose) of the same compound?
Answer: The value was 92%.

Question: And the “reversal of mechanical sensitivity” value ([2]; 60 mg/kg i.p., 6 h post-dose)?
Answer: The value was 45%.

Question: And the “effect on mechanical sensitivity” value ([2]; 10, 30, 60 mg/kg i.p.)?
Answer: The value was “dose-related reversal of mechanical sensitivity”.

Question: What about the “time of peak reversal post-dose” value ([2]; rat, in vivo) of the same compound?
Answer: Its value is 1 to 3 h.

Question: For `O=C(O)Cc1ccccc1Nc1c(Cl)cccc1Cl` [diclofenac], which “peak reversals in mechanical sensitivity” value ([2]; positive control, 30 mg/kg oral, 1 h post-dose) is on record?
Answer: The value was 64%.

Question: For `Nc1nnc(-c2cccc(Cl)c2Cl)c(N)n1` [lamotrigine], which “Peak reversal of mechanical sensitivity” value ([1]; positive control, 30 mg/kg oral) is on record?
Answer: The value was 67%.
